Where a name gives a salt, the structure may show the parent alone.
Legend:
resting GPIIb/IIIa = biological target: T1, resting GPIIb/IIIa (Homo sapiens, UniProt P05106+P08514); experiment: Test 2: suppression activity of fibrinogen adhesion of prostaglandin E1 (PGE1)-treated platelet; type: cell-based; settings: for IC50: washed PGE1 (1 μM)-treated platelets, plates coated with human fibrinogen 1 μg/well, 37° C. 30 min, read-out: R Suppression of fibrinogen adhesion IC50
T1 construct: Platelet rich plasma (PRP) was prepared by centrifugation of whole blood; endogenous in cells; host or cells: washed platelets from venous blood, kept resting with 1 μM PGE1
T1 sequence (P08514 32-887 limits assumed): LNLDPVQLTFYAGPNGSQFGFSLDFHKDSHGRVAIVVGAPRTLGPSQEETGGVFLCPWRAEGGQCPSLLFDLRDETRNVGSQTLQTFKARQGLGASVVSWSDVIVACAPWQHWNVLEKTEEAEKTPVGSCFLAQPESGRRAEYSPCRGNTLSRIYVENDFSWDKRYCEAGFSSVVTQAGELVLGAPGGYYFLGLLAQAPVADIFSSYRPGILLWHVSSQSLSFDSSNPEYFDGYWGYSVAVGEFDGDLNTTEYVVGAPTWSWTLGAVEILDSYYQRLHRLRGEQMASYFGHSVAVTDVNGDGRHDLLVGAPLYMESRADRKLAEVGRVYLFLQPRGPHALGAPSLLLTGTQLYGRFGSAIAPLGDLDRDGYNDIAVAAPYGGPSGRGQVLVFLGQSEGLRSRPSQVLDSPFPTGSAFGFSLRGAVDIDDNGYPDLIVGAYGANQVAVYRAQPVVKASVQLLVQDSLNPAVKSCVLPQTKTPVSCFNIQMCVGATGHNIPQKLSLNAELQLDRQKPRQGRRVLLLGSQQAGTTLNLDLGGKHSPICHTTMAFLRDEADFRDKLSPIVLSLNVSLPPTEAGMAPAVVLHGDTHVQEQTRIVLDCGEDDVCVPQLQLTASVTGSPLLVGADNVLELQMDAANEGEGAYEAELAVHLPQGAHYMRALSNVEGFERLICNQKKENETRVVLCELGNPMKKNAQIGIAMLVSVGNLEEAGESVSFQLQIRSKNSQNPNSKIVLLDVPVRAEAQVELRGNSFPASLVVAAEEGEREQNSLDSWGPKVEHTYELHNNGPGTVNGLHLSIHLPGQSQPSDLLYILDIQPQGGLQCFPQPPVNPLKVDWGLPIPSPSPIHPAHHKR
T1 sequence (P08514 891-1039 partner limits assumed): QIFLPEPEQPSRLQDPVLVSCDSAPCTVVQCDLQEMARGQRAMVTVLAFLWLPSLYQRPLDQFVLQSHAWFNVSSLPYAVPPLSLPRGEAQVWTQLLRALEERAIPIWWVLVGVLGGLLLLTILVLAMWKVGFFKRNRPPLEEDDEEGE
T1 sequence (P05106 27-788): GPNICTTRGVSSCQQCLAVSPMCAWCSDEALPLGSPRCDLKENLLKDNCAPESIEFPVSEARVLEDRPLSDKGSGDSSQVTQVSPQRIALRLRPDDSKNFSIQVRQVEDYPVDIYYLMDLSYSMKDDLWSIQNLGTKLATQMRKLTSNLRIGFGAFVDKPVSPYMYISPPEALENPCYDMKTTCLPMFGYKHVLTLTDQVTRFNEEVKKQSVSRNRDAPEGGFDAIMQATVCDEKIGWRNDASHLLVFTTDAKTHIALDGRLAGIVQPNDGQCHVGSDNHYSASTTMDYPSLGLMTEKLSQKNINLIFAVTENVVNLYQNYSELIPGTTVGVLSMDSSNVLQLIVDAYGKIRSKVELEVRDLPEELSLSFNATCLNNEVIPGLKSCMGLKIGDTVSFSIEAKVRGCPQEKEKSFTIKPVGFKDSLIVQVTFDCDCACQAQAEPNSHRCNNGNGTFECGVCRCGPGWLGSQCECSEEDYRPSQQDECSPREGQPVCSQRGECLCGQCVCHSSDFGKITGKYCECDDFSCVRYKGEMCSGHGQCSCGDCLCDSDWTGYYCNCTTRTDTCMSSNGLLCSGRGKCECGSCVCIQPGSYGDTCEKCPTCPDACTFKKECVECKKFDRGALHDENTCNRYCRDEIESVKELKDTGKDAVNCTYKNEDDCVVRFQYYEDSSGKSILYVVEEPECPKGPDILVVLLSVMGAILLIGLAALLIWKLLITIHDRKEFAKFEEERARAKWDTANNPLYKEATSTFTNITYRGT
Procedure: Test 2: Measurement of Suppression Activity of Fibrinogen Adhesion of Prostaglandin E1 (PGE 1)-treated Platelet
Venous blood was collected onto sodium citrate. Platelet rich plasma (PRP) was prepared by centrifugation of whole blood. Platelets were washed with modified HEPES-Tyrode's buffer (129 mM NaCl, 2.8 mM KCl, 0.8 mM KH2PO4, 8.9 mM NaHCO3, 0.8 mM MgCl2, 10 mM HEPES, 5.5 mM Glucose, 0.1% BSA,.pH 7.4) containing 1μM PGE1. After washing, platelets were suspended in modified HEPES-Tyrode's buffer containing 1.0 mM CaCl2 and 1 μM PGE1 and the number of platelet was adjusted.
Adhesion assay was carried out as follows. 96-well microtiter plates were coated with 1 μg/well of human fibrinogen. The plates were then blocked with 1% BSA. After washing the plates with the buffer, the washed platelets were added to each well in the presence of the test compound or buffer and incubated at 37° C. for 30 min. The plates were then washed three times with buffer. The number of adhered cells was determined by measuring the acid phosphatase activity of cells using a microplate reader at 410 nm. Percent inhibition of adhesion in the sample treated with the test compound was calculated by comparison with the adhesion in absence of the test compound. The activity of the test compound was represented by a value of IC50, i.e. a dose required for the […] inhibition of the platelet adhesion.

active GPIIb/IIIa = biological target: T2, active GPIIb/IIIa (Homo sapiens, UniProt P05106+P08514); experiment: Test 1: inhibitory activity of adenosine diphosphate (ADP)-induced platelet aggregation in platelet rich plasma; type: cell-based; settings: for R/A ratio: IC50 (R) of Test 2 / IC50 (A) of Test 1, selective binding ability toward the active GPIIb/IIIa; for IC50: human PRP 3×10^8 platelets/ml, 37° C., read-out: A Inhibition of platelet aggregation IC50
T2 construct: Platelet rich plasma (PRP) containing 3×10^8 platelets/ml was prepared from human blood; endogenous in cells
T2 sequence (P08514 32-887 limits assumed): as the sequence (P08514 32-887 limits assumed) above
T2 sequence (P08514 891-1039 partner limits assumed): as the sequence (P08514 891-1039 partner limits assumed) above
T2 sequence (P05106 27-788): as the sequence (P05106 27-788) above
Procedure: Test 1: Measurement of Inhibitory Activity of Adenosine Diphosphate (ADP)-induced Platelet Aggregation
Platelet rich plasma (PRP) containing 3×10^8 platelets/ml was prepared from human blood. To 225 μl of PRP, 25 μl of a solution of the test compound was added and stirred at 37° C. for 2 min. To the solution, 5 μl of ADP (final concentration: 2.5 μM) was added as an aggregation inducing agent. Aggregation was measured with aggregometer (NBS HEMA-TRACER 801). The procedure was as follows. Light transmittance of PRP was calibrated to 100%. PRP was incubated in the aggregometer at 37° C. for 2 min. ADP was added […], and the change in light transmittance was monitored by PL500 recorder (Yokogawa, Japan). Percent inhibition of aggregation by the test compound was calculated by comparison with the aggregation in the absence of the test compound. The activity of an […] (test compound) is represented as a value of IC50, i.e., a dose required for the […] inhibition of the platelet aggregation.

monkey thrombus model = experiment: Accumulation of radioactivity at thrombus, blood and muscle in monkey thrombus model (PET, gamma counter); type: in vivo, monkey (Macaca fasciculans); settings: 90 min after the administration
Description: Kinetics of the labeled compounds in the body of monkey (Macaca fasciculans) was studied by using the contrast mediums labeled with [^11C] and [^18F] prepared in Production Examples 21 and 22, respectively.
According to the canine saphenous vein (which is formed with a confluence of dorsal digital veins of hallux and arcuate veins of foot, and ascends in front of a medial malleolus and behind of a medial condyle of femur, crosses a saphenous opening of patellar retinaculum and pour into a femoral vein over a femoral triangle) thrombosis model (Knight L. C. et al., Thromb Haemost., 1998, 80, p.845-851 and Lister-James L. et al., J. Nucl Med. 1996, 37, p.775-781), a platinum embolization coil (Boston Scientific Japan) was inserted and placed in the right femoral vein of the monkey while anesthetized and wound was sutured.
Three hours after the insertion of the coil, the contrast mediums prepared in Production Examples 21 and 22, respectively, were administered intravenously (740 MBq/2 ml-saline). Imaging was performed for 90 min with a high-resolution positron emission tomography (PET) scanner (SHR-7700, Hamamatsu Photonics K.K., Japan). After PET measurement, the coil was removed, and the right femoral vein was collected to obtain a thrombus sample. Thigh muscle was collected, and saphenous artery was punctured to collect an arterial blood sample. The thrombus, thigh muscle and arterial blood samples were weighed and their radioactivity was measured with gamma counter (1480 WIZARD, Wallac Oy, Finland).
Data was calculated as percent of injected dose ([…]).

[1] = listed as Production Example 21

| IC50 (resting GPIIb/IIIa) [µM] | R/A ratio (active GPIIb/IIIa) | IC50 (active GPIIb/IIIa; ADP final concentration 2.5 μM) [µM] | Compound | also measured |
| --- | --- | --- | --- | --- |
| 7.9 | 59 | 0.135 | CN(CC(=O)c1ccc(OCC(=O)O)c(OCC(=O)O)c1)C(=O)/C=C/C1CCNCC1 [Ex. 1, 2,2′-{[4-([methyl[(2E)-3-(4-piperidinyl)-2-propenoyl]amino}acetyl)-1,2-phenylene]bis(oxy)]diacetic acid hydrochloride] | – |
| 1.35 | 18 | 0.073 | CC(NCOc1ccc(C(=N)N)cc1)C(=O)N[C@@H](CC(=O)O)C(=O)N[C@@H](C(=O)N1CCS(=O)(=O)CC1)C(C)C (stereo partly drawn) [Ex. 3] | – |
| 1.63 | 6.3 | 0.26 | N=C(N)c1ccc(OCC(=O)Nc2ccc(OCC(=O)O)c(C(=O)O)c2)cc1 [Ex. 4] | – |
| 0.434 | 7.8 | 0.056 | CC(=O)N[C@@H](CNC(=O)[C@@H]1CCCN(C(=O)/C=C/C2CCNCC2)C1)C(=O)O [Ex. 6] | – |
| 0.533 | 15 | 0.035 | COc1ccc(CCC(=O)N[C@H](CNC(=O)[C@@H]2CCCN(C(=O)CCC3CCNCC3)C2)C(=O)O)cc1 [Ex. 7] | – |
| 1.53 | – | 0.049 | CCC(=O)N[C@@H](CNC(=O)[C@@H]1CCCN(C(=O)CCC2CCNCC2)C1)C(=O)O [Ex. 8] | – |
| 0.727 | 13 | 0.055 | CC(=O)OCC(=O)N[C@H](CNC(=O)[C@@H]1CCCN(C(=O)CCC2CCNCC2)C1)C(=O)O [Ex. 9] | – |
| 2.51 | 9.2 | 0.272 | N[C@@H](CNC(=O)[C@@H]1CCCN(C(=O)CCC2CCNCC2)C1)C(=O)O [Ex. 10] | – |
| 0.479 | 6.5 | 0.088 | COc1ccc(CCC(=O)N[C@@H](CNC(=O)[C@@H]2CCCN(C(=O)CCC3CCNCC3)C2)C(=O)O)cc1 [Ex. 11] | – |
| 5.16 | 6.5 | 0.791 | CC(=O)N[C@@H](CNC(=O)[C@H]1CCCN(C(=O)CCC2CCNCC2)C1)C(=O)O [Ex. 12] | – |
| 4.05 | 14 | 0.291 | COc1cc(C(=O)CN(C)C(=O)/C=C/C2CCNCC2)ccc1OCC(=O)O [Ex. 14] | – |
| 6.21 | 19 | 0.32 | CN(CC(=O)c1ccc(OCC(=O)O)c(OCCF)c1)C(=O)/C=C/C1CCNCC1 [Ex. 15] | – |
| 0.198 | 6.1 | 0.0324 | CCCCCCC(=O)N[C@H](CNC(=O)[C@@H]1CCCN(C(=O)CCC2CCNCC2)C1)C(=O)O [Ex. 16] | – |
| 0.486 | 16 | 0.0299 | COC(=O)COc1ccc(C(=O)N[C@H](CNC(=O)[C@@H]2CCCN(C(=O)CCC3CCNCC3)C2)C(=O)O)cc1 [Ex. 17] | – |
| 0.048 | 7.9 | 0.0061 | CC(C)CCCOc1ccc(C(=O)N[C@@H](CNC(=O)[C@H]2CCCN(C(=O)CCC3CCNCC3)C2)C(=O)O)cc1 [Ex. 18] | – |
| 0.151 | 17 | 0.0091 | CC(C)CCC(=O)Nc1cccc(C(=O)N[C@@H](CNC(=O)[C@H]2CCCN(C(=O)CCC3CCNCC3)C2)C(=O)O)c1 [Ex. 19] | – |
| 0.239 | 8.0 | 0.03 | CC(C)CC(=O)Nc1cccc(C(=O)N[C@@H](CNC(=O)[C@H]2CCCN(C(=O)CCC3CCNCC3)C2)C(=O)O)c1 [Ex. 20] | – |
| – | – | – | [11CH3]N(CC(=O)c1ccc(OCC(=O)O)c(OCC(=O)O)c1)C(=O)/C=C/C1CCNCC1 [Production Ex. 21, 2,2′-[[4-({[^11C]methyl[(2E)-3-(4-piperidinyl)-2-propenoyl]amino}acetyl)-1,2-phenylene]bis(oxy)]diacetic acid trifluoroacetate] | Thrombus/Blood ratio (monkey thrombus model): 24.2 ± 17.9; Thrombus/Muscle ratio (monkey thrombus model): 94.8 ± 65.0; Thrombus/Blood ratio (monkey thrombus model; [1]): approximately 24; Thrombus/Muscle ratio (monkey thrombus model; [1]): approximately 95; Blood accumulation of radioactivity (monkey thrombus model; intravenous 740 MBq, arterial blood): 0.084 ± 0.012 % ID/g/kg; Muscle accumulation of radioactivity (monkey thrombus model; intravenous 740 MBq, thigh muscle): 0.021 ± 0.005 % ID/g/kg; Thrombus accumulation of radioactivity (monkey thrombus model; intravenous 740 MBq, thrombus): 1.902 ± 1.132 % ID/g/kg |
| 0.08 | 1.8 | 0.045 | N=C(N)c1ccc(C(=O)N[C@@H](Cc2ccc(O)cc2)C(=O)N2CCC(OCC(=O)O)CC2)cc1 [Reference Ex. 3, Lamifiban, reference compound] | – |
| 1.32 | 13 | 0.103 | CC(C)[C@H](NC(=O)[C@H](CC(=O)O)NC(=O)CCCOc1ccc(C(=N)N)cc1)C(=O)O [Reference Ex. 4, FK633, reference compound] | – |

| Compound | IC50 (resting GPIIb/IIIa) [µM] | R/A ratio (active GPIIb/IIIa) | IC50 (active GPIIb/IIIa; ADP final concentration 2.5 μM) [µM] | also measured |
| --- | --- | --- | --- | --- |
| Echistatin [compound 1, reference compound] | – | 0.38 | – | R Suppression of fibrinogen adhesion IC50 (resting GPIIb/IIIa; PGE1-treated platelets, human fibrinogen coated plates, value printed in μg/ml): 0.14 mg/L; A Inhibition of platelet aggregation IC50 (active GPIIb/IIIa; human PRP, ADP final concentration 2.5 μM, value printed in μg/ml): 0.36 mg/L |
